Measurements from patent US9783586B2, “Inhibitors of the linear ubiquitin chain assembly complex (LUBAC) and related methods” (The United States of America, as represented by the …, priority 2013, dated 2017).
Positions of bridges follow the written chain, without caps; N, C: chain ends. Non-standard residues stand in square brackets, D forms with d. S5 = C=CCCC[C@](C)(N)C(=O)O; βAla = NCCC(=O)O

Key:
Format in all cases: cell-based
NF-κB = NF-κB luciferase reporter assay; conditions: HBL1 ABC DLBCL cells, 5 μM or 20 μM, 2 days, relative to DMSO (FIG. 4)
Description: A third experiment was done using a different reporter system for NF-κB activity. HBL1 and TMD8 ABC DLBCL lines cell lines were created with an NF-κB transcriptional reporter by transduction with lentiviral particles containing an inducible NF-κB-responsive luciferase reporter construct (SA Biosciences, Valencia, Calif.) and selected with puromycin. Luciferase activity was measured using the DUAL-LUCIFERASE™ Reporter Assay System (Promega) on a Microtiter Plate Luminometer (Dyn-Ex Technologies, Chantilly, Va.). The transduced HBL and TMD8 cell lines were then transfected with constructs that inducibly express control (SC4) or RNF31 shRNAs described above. Expression of shRNAs was induced using doxycyline, and the luciferase reporter activity in shRNF31 expression cells was measured and normalized relative to control (SC4). Cells were also treated with the specific IKKβ inhibitor (MLN120B) as a positive control. Experiments were done in triplicate, and results are shown in FIG. 2C (error bars indicate SEM).
The ability of these peptides to inhibit NF-κB activity in ABC DLBCL was determined using the NF-κB luciferase reporter assay described above. Negative control cells were treated with dimethyl sulfoxide (DMSO), and positive control cells were treated with Bruton's tyrosine kinase (Btk) inhibitor ibrutinib. […] Cells were treated with peptides at concentrations of 5 μM or 20 μM for 2 days. Relative NF-κB-luciferase reporter activity was normalized and measured relative to control (DMSO-treated) cells. The results of triplicate experiments are shown in FIG. 4 (error bars indicate the SEM).

RBCK1/RNF31 interaction = target: T1, RBCK1/RNF31 interaction (Homo sapiens, UniProt Q9BYM8); assay: RBCK1/RNF31 co-immunoprecipitation (LUBAC complex formation) in co-transfected HEK-293 cells; conditions: HEK-293 cells, 5 μM or 20 μM, 24 hours, relative to DMSO (FIGS. 5, 6)
T1 construct: expressed in transfected cells; host or cells: HEK-293
T1 sequence (Q9BYM8 1-510): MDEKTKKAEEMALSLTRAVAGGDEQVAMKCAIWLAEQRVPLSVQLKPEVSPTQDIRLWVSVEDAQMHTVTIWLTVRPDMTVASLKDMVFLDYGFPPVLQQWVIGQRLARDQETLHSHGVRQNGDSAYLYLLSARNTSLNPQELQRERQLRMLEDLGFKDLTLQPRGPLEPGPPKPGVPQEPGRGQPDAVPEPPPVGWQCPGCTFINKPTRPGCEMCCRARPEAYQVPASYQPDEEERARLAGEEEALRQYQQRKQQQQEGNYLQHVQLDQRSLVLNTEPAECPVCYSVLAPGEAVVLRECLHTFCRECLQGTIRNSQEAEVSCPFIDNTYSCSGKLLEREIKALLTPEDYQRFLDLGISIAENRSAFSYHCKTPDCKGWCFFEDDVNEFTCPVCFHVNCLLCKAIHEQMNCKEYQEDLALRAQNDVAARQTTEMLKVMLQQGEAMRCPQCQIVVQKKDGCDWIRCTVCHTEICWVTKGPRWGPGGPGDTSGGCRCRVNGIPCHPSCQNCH

ABC DLBCL cell lines = assay: MTS cell viability assay, ABC DLBCL; conditions: ABC DLBCL cell lines, 5 μM or 20 μM, four days (FIGS. 7A-7D)
Description: (§1) ABC and GCB DLBCL cell lines were treated with RNF31 stapled peptides of Table 2 at concentrations of 5 μM or 20 μM for four days. Cell viability was determined using the following MTS assay. Cells were plated in triplicate at a density of 15,000 cells per well in 96-well plates. Cell viability after indicated treatments was assayed by adding 3-(4,5-dimethylthiazol-2-yl)-5-(3-carboxymethoxyphenyl)-2-(4-sulphophenyl)-2H tetrazolium and an electron coupling reagent (phenazine methosulphate from Promega, Madison, Wis.), incubated for 3 hours and measured by the amount of 490 nm absorbance using a 96-well plate reader. The background was subtracted using a media only control. The results of these MTS assays done in triplicate are shown in FIGS. 7A-7D (error bars indicate the SEM), and cell viability is expressed as the fraction of cells remaining after four days treatment, relative to the initial number of cells at the start of treatment (time 0). The results of MTS cell viability assay indicate that amino-terminal cross-linked peptides RNF31-N (SEQ ID NO: 11) and RNF31-NC (SEQ ID NO: 12) were toxic to ABC DLBCL cell lines but had little effect on GCB DLBCL cell lines tested.

GCB DLBCL cell lines = assay: MTS cell viability assay, GCB DLBCL; conditions: 5 μM or 20 μM, four days (FIGS. 7A-7D)
Description: as §1

Ac-βAla Ser Arg Xaa Leu Thr Glu Xaa Gln Arg Gln Arg Leu Glu Pro Phe Arg Gln Arg Xaa Trp Asp Ser Xaa-NH2 (Ac-[βAla]SR[S5]LTE[S5]QRQRLEPFRQR[S5]WDS[S5]-NH2; staple 20-24, 4-8; SMILES CC(=O)NCCC(=O)N[C@@H](CO)C(=O)N[C@@H](CCCNC(=N)N)C(=O)N[C@@]1(C)CCCC=CCCC[C@@](C)(C(=O)N[C@@H](CCC(N)=O)C(=O)N[C@@H](CCCNC(=N)N)C(=O)N[C@@H](CCC(N)=O)C(=O)N[C@@H](CCCNC(=N)N)C(=O)N[C@@H](CC(C)C)C(=O)N[C@@H](CCC(=O)O)C(=O)N2CCC[C@H]2C(=O)N[C@@H](Cc2ccccc2)C(=O)N[C@@H](CCCNC(=N)N)C(=O)N[C@@H](CCC(N)=O)C(=O)N[C@@H](CCCNC(=N)N)C(=O)N[C@@]2(C)CCCC=CCCC[C@@](C)(C(N)=O)NC(=O)[C@H](CO)NC(=O)[C@H](CC(=O)O)NC(=O)[C@H](Cc3c[nH]c4ccccc34)NC2=O)NC(=O)[C@H](CCC(=O)O)NC(=O)[C@H]([C@@H](C)O)NC(=O)[C@H](CC(C)C)NC1=O) [RNF31-NC]
Relative NF-κB-luciferase reporter activity (NF-κB): strongly inhibit NF-κB
RBCK1/RNF31 interaction (anti-HA immunoprecipitation, densitometry) (RBCK1/RNF31 interaction): inhibited RBCK1/RNF31 interaction in a dose-dependent fashion
Cell viability (MTS) (ABC DLBCL cell lines): toxic
Cell viability (MTS) (GCB DLBCL cell lines): little effect
